Assay results from patent US10676755B2, “Mutated acetohydroxyacid synthase genes in euphorbiaceae and plant material comprising such genes” (priority 2015, dated 2020).

Experiments:
[1] = test system: wt cassava AHAS gene in CHI bacterial cells lacking the endogenous AHAS homolog; assay: bacterial spot test, serially-diluted cells on herbicide plates; format: cell-based, Cassava (Manihot esculenta); settings: negative control wt cassava AHAS gene
Procedure: (§1) Mutations were generated by site-directed mutagenesis (SDM) of the wild-type Cassava AHAS gene 1 and transformed into CHI bacterial cells lacking the endogenous AHAS homolog. Serially-diluted cells were plated onto plates with increasing concentrations of either imazamox (IM) or flumetsulam (TP). Cassava AHAS wt and a canola ALS mutant known to be highly herbicide tolerant were used as negative and positive controls, respectively. Representative set of bacterial spot tests showing the positive and negative controls, some other mutants tested and the W574S mutant. The herbicide concentrations listed on the left-most column correspond to the entire row and columns separate different lines. Each spot test consists of four 1:10 serial dilutions (10-3, 10-4, 10-5 and 10-6) after normalization based on the OD600 of each M9 liquid culture.
Mutations were generated by site-directed mutagenesis (SDM) of the wild-type Cassava AHAS gene 1 and transformed into CHI bacterial cells lacking the endogenous AHAS homolog. Serially-diluted cells were plated onto plates with increasing concentrations of either imazamox (IM) or flumetsulam (TP). Cassava AHAS wt and a canola ALS mutant known to be highly herbicide tolerant were used as negative and positive controls, respectively. […]

[2] = test system: canola ALS mutant in CHI bacterial cells; assay: as above; format: cell-based; settings: positive control canola ALS mutant
Procedure: as §1
as §1, with “D376A” for “W574S”

[3] = test system: cassava AHAS W574S mutant in CHI bacterial cells; assay: as above; format: cell-based, Cassava (Manihot esculenta); settings: similar to the canola positive control
Procedure: as §1

[4] = test system: cassava AHAS W574L mutant in CHI bacterial cells; assay: kill curve assay, colonies counted on herbicide plates; format: cell-based, Cassava (Manihot esculenta); settings: growth is inconsistent
Procedure: (§2) Mutants were also tested using a “kill curve” assay where equal numbers of cells containing the mutant of interest were plated onto plates with increasing concentrations of herbicide and the number of resulting colonies counted. Kill curve results averaged between three experiments, each with an average of three technical replicates. Error bars are ±one standard deviation of the averaged data. Results are depicted in FIG. 6.
(§3) Mutants were also tested using a “kill curve” assay where equal numbers of cells containing the mutant of interest were plated onto plates with increasing concentrations of herbicide and the number of resulting colonies counted. Kill curve results averaged between three experiments, each with an average of three technical replicates. Error bars are ±one standard deviation of the averaged data. Results are depicted in FIG. 8.

[5] = test system: cassava AHAS D376A mutant in CHI bacterial cells; assay: bacterial spot test, serially-diluted cells on herbicide plates; format: cell-based, Cassava (Manihot esculenta)
Procedure: as §1, with “D376A” for “W574S”

[6] = test system: cassava AHAS W574L mutant in CHI bacterial cells; assay: as above; format: cell-based, Cassava (Manihot esculenta); settings: growth is inconsistent
Procedure: as §1, with “D376A” for “W574S”

[7] = test system: cassava AHAS D376A mutant in CHI bacterial cells; assay: kill curve assay, colonies counted on herbicide plates; format: cell-based, Cassava (Manihot esculenta)
Procedure: as §3

[8] = test system: cassava AHAS W574S mutant in CHI bacterial cells; assay: as above; format: cell-based, Cassava (Manihot esculenta)
Procedure: as §2

Compound | growth of cells on plates containing herbicide [1] | growth of cells on plates containing herbicide [2] | herbicide concentration at which all growth ceased [2] [mM] | growth of cells on plates containing herbicide [3] | tolerance to herbicide [4] | tolerance to herbicide [5] | tolerance to herbicide [6] | tolerance to herbicide [7] | tolerance to herbicide [8]
COCc1cnc(C2=NC(C)(C(C)C)C(=O)N2)c(C(=O)O)c1 (stereo not drawn) [IM, imazamox] | failed to grow | grew on all concentrations | 5 | robust growth | robust tolerance | robust tolerance | robust tolerance | robust tolerance | –
Cc1ccn2nc(S(=O)(=O)Nc3c(F)cccc3F)nc2n1 [TP, flumetsulam] | failed to grow | grew on all concentrations | 5 | robust growth | robust tolerance | – | robust tolerance | – | enhanced tolerance
